Laboratory results: patent US20240366612A1, “COMPOUNDS AND METHODS FOR MODULATING NUCLEIC ACID SPLICING” (REMIX THERAPEUTICS INC., priority 2021, published 2024)

Legend:
Assay type in all cases: cell-based
HTT mRNA = test: Splicing RT-qPCR assay, HTT canonical (CJ) and alternative (AJ) junction mRNA; conditions: Homo sapiens, A673 or K562 cells, 24 hours treatment; for IC50: decrease in CJ mRNA; for AC50: increase in AJ mRNA
Description: (§1) Compounds described herein were used to modulate RNA transcript abundance in cells. The expression of a target mRNA was measured by detecting the formation of an exon-exon junction in the canonical transcript (CJ). A compound mediated exon-inclusion event was detected by observing an increase in formation of a new junction with an alternative exon (AJ). Real-time qPCR assays were used to detect these splicing switches and interrogate the potency of various compounds towards different target genes. A high-throughput real time quantitative PCR (RT-qPCR) assay was developed to measure these two isoforms of the mRNA (CJ and AJ) for exemplary genes, such as HTT, SMN2, and MYB, together with a control housekeeping gene, GAPDH or GUSB or PPIA, used for normalization. Briefly, the A673 or K562 cell line was treated with various compounds described herein (e.g., compounds of Formula (I)). After treatment, the levels of the HTT, MYB, or SMN2 mRNA targets were determined from each sample of cell lysate by cDNA synthesis followed by qPCR.
• Cells-to-CT 1-step kit: ThermoFisher A25602, Cells-to-CT lysis reagent: ThermoFisher 4391851C, TaqMan™ Fast Virus 1-Step Master Mix: ThermoFisher 4444436 • GAPDH: VIC-PL, ThermoFisher 4326317E (Assay: Hs99999905_ml)—used for K562/suspension cell lines • GUSB: VIC-PL, ThermoFisher 4326320E (Assay: Hs99999908_ml)—used for K562/suspension cell lines • PPIA: VIC-PL, ThermoFisher 4326316E (Assay: Hs99999904_ml)—used for A673/adherent cell lines
(§2) The A673 cell line was cultured in DMEM with 10% FBS. Cells were diluted with full growth media and plated in a 96-well plate (15,000 cells in 100 ul media per well). The plate was incubated at 37° C. with 5% CO2 for 24 hours to allow cells to adhere. An 11-point 3-fold serial dilution of the compounds was made in DMSO then diluted in media in an intermediate plate. Compounds were transferred from the intermediate plate to the cell plate with the top dose at a final concentration of 10 uM in the well. Final DMSO concentration was kept at or below 0.25%. The cell plate was returned to the incubator at 37° C. with 5% CO2 for an additional 24 hours.
(§3) The K562 cell line was cultured in IMDM with 10% FBS. For K562, cells were diluted with full growth media and plated in either a 96-well plate (50,000 cells in 50 uL media per well) or a 384-well plate (8,000-40,000 cells in 45 uL media per well). An 11-point 3-fold serial dilution of the compounds were made in DMSO then diluted in media in an intermediate plate. Compound was transferred from the intermediate plate to the cell plate with the top dose at a final concentration of 10 uM in the well. Final DMSO concentration was kept at or below 0.25%. Final volume was 100 uL for 96-well plate and 50 uL for 384-well plate. The cell plate was then placed in an incubator at 37° C. with 5% CO2 for 24 hours.
The cells were then gently washed with 50 uL-100 uL cold PBS before proceeding to addition of lysis buffer. 30 uL-50 μL of room temperature lysis buffer with DNAse I (and optionally RNAsin) was added to each well. Cells were shaken/mixed thoroughly at room temperature for 5-10 minutes for lysis to take place and then 3 uL-5 μL of room temperature stop solution was added and wells were shaken/mixed again. After 2-5 minutes, the cell lysate plate was transferred to ice for RT-qPCR reaction setup. The lysates could also be frozen at −80° C. for later use.
In some cases, a direct lysis buffer was used. An appropriate volume of 3×lysis buffer (10 mM Tris, 150 mM NaCl, 1.5%-2.5% Igepal and 0.1-1 U/uL RNAsin, pH 7.4) was directly added to either K562 or A673 cells in media and mixed by pipetting 3 times. The plates were then incubated at room temperature with shaking/rocking for 20-50 minutes to allow for lysis to take place. After this time, the cell lysate plate was transferred to ice to set up for the RT-qPCR reactions. The lysates could also be frozen at −80° C. for later use. […]

MYB CJ mRNA = test: Gene panel canonical junction qPCR assay, MYB; conditions: Homo sapiens, larger gene panel, read-out: MYB IC50 (decrease in CJ mRNA levels)
Description: as §1, §2, §3
(§4) The data analysis was performed by first determining the ΔCt vs the housekeeper gene. This ΔCt was then normalized against the DMSO control (ΔΔCt) and converted to RQ (relative quantification) using the 2^(−ΔΔCt) equation. The RQ were then converted to a percentage response by arbitrarily setting an assay window of 3.5 and 4.0 ΔCt for HTT-CJ and MYB-CJ respectively and an assay window of 9 and 3 ΔCt for HTT-AJ and MYB-AJ in 96 well format (50,000 K562 cells/well and 15,000 A673 cells per well) and an assay window of 3 and 4 ΔCt for HTT-CJ and MYB-CJ respectively and an assay window of 5 and 3 ΔCt for HTT-AJ and MYB-AJ respectively in 384 well format (8,000 K562 cells/well example). […] The percentage response was then fitted to the 4 parametric logistic equation to evaluate the concentration dependence of compound treatment. The increase in AJ mRNA is reported as AC50 (compound concentration having […] in AJ increase) while the decrease in CJ mRNA levels is reported as IC50 (compound concentration having 50% response in CJ decrease).
(§5) Additional studies were carried out for a larger panel of genes using the protocol provided above. The junction between flanking upstream and downstream exons was used to design canonical junction qPCR assays. At least one of the forward primer, reverse primer or the CY5-labeled 5′ nuclease probe (with 3′ quencher such as ZEN/Iowa Black FQ) was designed to overlap with the exon junction to capture the CJ mRNA transcript. […]

Target C CJ mRNA = test: Gene panel canonical junction qPCR assay, Target C; conditions: Homo sapiens, larger gene panel, read-out: Target C IC50 (decrease in CJ mRNA levels)
Description: as §1, §2, §3, §4, §5

| SMILES | IC50 (HTT mRNA) | AC50 (HTT mRNA) | IC50 (MYB CJ mRNA) | IC50 (Target C CJ mRNA) |
| --- | --- | --- | --- | --- |
| Cc1cn2cc(-c3cc4ncn(N5CCNCC5)c(=O)c4s3)cc(F)c2n1 [Compound 269, 6-{8-fluoro-2-methylimidazo[1,2-a]pyridin-6-yl}-3-(piperazin-1-yl)thieno[3,2-d]pyrimidin-4-one] | 100 to 1000 nM | 100 to 1000 nM | 100 to 1000 nM | 1000 to 10000 nM |
| Cc1cn2cc(-c3nc4sc(C5CCNCC5)cc4c(=O)[nH]3)cc(F)c2n1 [Compound 250, 2-(8-fluoro-2-methylimidazo[1,2-a]pyridin-6-yl)-6-(piperidin-4-yl)thieno[2,3-d]pyrimidin-4(3H)-one] | 100 to 1000 nM | 100 to 1000 nM | 100 to 1000 nM | 100 to 1000 nM |
| Cc1cn2cc(-c3cc4ncn(C5CCNCC5)c(=O)c4s3)cc(C)c2n1 [Compound 261] | 100 to 1000 nM | 1000 to 10000 nM | 100 to 1000 nM | 1000 to 10000 nM |
| Cc1cn2cc(-c3cc4ncn(C5CCNCC5(F)F)c(=O)c4s3)cc(F)c2n1 (stereo not shown) [Compound 274, 3-(3,3-difluoropiperidin-4-yl)-6-{8-fluoro-2-methylimidazo[1,2-a]pyridin-6-yl}thieno[3,2-d]pyrimidin-4-one] | > 10000 nM | 1000 to 10000 nM | > 10000 nM | > 10000 nM |
| Cc1cc(-c2cc3ncn(C4CCNCC4)c(=O)c3s2)cc2cn(C)nc12 [Compound 236, 6-(2,7-dimethyl-2H-indazol-5-yl)-3-(piperidin-4-yl)thieno[3,2-d]pyrimidin-4(3H)-one] | < 100 nM | 100 to 1000 nM | 100 to 1000 nM | 100 to 1000 nM |
| Cc1cn2nc(-c3cc(=O)n4cc(N5CCNC6(CC6)C5)sc4n3)cc(C)c2n1 [Compound 211, 7-(2,8-dimethylimidazo[1,2-b]pyridazin-6-yl)-2-(4,7-diazaspiro[2.5]octan-7-yl)-5H-thiazolo[3,2-a]pyrimidin-5-one] | 1000 to 10000 nM | 1000 to 10000 nM | 1000 to 10000 nM | 1000 to 10000 nM |
| Cc1cn2nc(-c3cc4ccn(C5CCN(C)CC5)c(=O)c4s3)cc(C)c2n1 [Compound 809] | 1000 to 10000 nM | 1000 to 10000 nM | 1000 to 10000 nM | 1000 to 10000 nM |
| Cc1cn2nc(-c3cc4ncn(C5CCNCC5)c(=O)c4s3)cc(C)c2n1 [Compound 238, 6-(2,8-dimethylimidazo[1,2-b]pyridazin-6-yl)-3-(piperidin-4-yl)thieno[3,2-d]pyrimidin-4(3H)-one] | 100 to 1000 nM | 100 to 1000 nM | 100 to 1000 nM | 1000 to 10000 nM |
| Cc1cn2nc(-c3nc4cnn(C5CCNCC5)c(=O)c4s3)cc(C)c2n1 [Compound 810] | 100 to 1000 nM | 100 to 1000 nM | 100 to 1000 nM | 100 to 1000 nM |
| Cc1cc(-c2cc3cnn(C4CCNCC4)c(=O)c3s2)cc2cn(C)nc12 [Compound 802, 2-(2,7-dimethyl-2H-indazol-5-yl)-6-(piperidin-4-yl)thieno[2,3-d]pyridazin-7(6H)-one] | 100 to 1000 nM | 100 to 1000 nM | 100 to 1000 nM | 100 to 1000 nM |
| Cc1cn2cc(-c3cc4ncn(C5CCNCC5)c(=O)c4s3)cc(F)c2n1 [Compound 235, 6-(8-fluoro-2-methylimidazo[1,2-a]pyridin-6-yl)-3-(piperidin-4-yl)thieno[3,2-d]pyrimidin-4(3H)-one] | < 100 nM | < 100 nM | 100 to 1000 nM | 100 to 1000 nM |
| Cc1cc(-c2nc3ncn(C4CCNCC4)c(=O)c3s2)cc2cn(C)nc12 [Compound 233, 2-(2,7-dimethyl-2H-indazol-5-yl)-6-(piperidin-4-yl)thiazolo[4,5-d]pyrimidin-7(6H)-one] | < 100 nM | < 100 nM | 100 to 1000 nM | 100 to 1000 nM |
| Cc1cc(-c2cc3ccn(C4CCNCC4)c(=O)c3s2)cc2cn(C)nc12 [Compound 805, 2-(2,7-dimethyl-2H-indazol-5-yl)-6-(piperidin-4-yl)thieno[2,3-c]pyridin-7(6H)-one] | 100 to 1000 nM | 100 to 1000 nM | 100 to 1000 nM | 1000 to 10000 nM |
| Cc1cn2cc(-c3cc4ncn(C5CNCCC5=O)c(=O)c4s3)cc(F)c2n1 (stereo not shown) [Compound 279, 3-(6-{8-fluoro-2-methylimidazo[1,2-a]pyridin-6-yl}-4-oxothieno [3,2-d]pyrimidin-3-yl)piperidin-4-one] | > 10000 nM | > 10000 nM | > 10000 nM | > 10000 nM |
| COc1cc(-c2cc3ncn(C4CCNCC4)c(=O)c3s2)ccn1 [Compound 263] | 1000 to 10000 nM | 1000 to 10000 nM | 1000 to 10000 nM | 1000 to 10000 nM |
| Cn1cc2cc(-c3cc4ncn(C5CCNCC5)c(=O)c4s3)cc(C#N)c2n1 [Compound 259] | 1000 to 10000 nM | 1000 to 10000 nM | 100 to 1000 nM | 1000 to 10000 nM |
| Cc1cn2cc(-c3cc4ncn(C5=CCNCC5)c(=O)c4s3)cc(F)c2n1 [Compound 276, 6-{8-fluoro-2-methylimidazo[1,2-a]pyridin-6-yl}-3-(1,2,3,6-tetrahydropyridin-4-yl)thieno[3,2-d]pyrimidin-4-one] | 100 to 1000 nM | 100 to 1000 nM | 100 to 1000 nM | 100 to 1000 nM |
| Cc1cn2cc(-c3cc4ncn([C@H]5CCNC[C@H]5F)c(=O)c4s3)cc(F)c2n1 (relative stereo) [Compound 273, cis-6-{8-fluoro-2-methylimidazo[1,2-a]pyridin-6-yl}-3-[3-fluoropiperidin-4-yl]thieno[3,2-d]pyrimidin-4-one] | 100 to 1000 nM | 1000 to 10000 nM | 100 to 1000 nM | 1000 to 10000 nM |
| Cc1cn2cc(-n3cnc4nc(N5CCNCC5)sc4c3=O)cc(F)c2n1 [Compound 226, 6-(8-fluoro-2-methylimidazo[1,2-a]pyridin-6-yl)-2-(piperazin-1-yl)thiazolo[4,5-d]pyrimidin-7(6H)-one] | 100 to 1000 nM | 100 to 1000 nM | 100 to 1000 nM | 100 to 1000 nM |
